According to ChEMBL document CHEMBL1201862, “PubChem BioAssay data set” (2004):
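Tested at 5 concentrations; 48 h exposure; 96-well plates; endpoints linearly interpolated, else capped at highest concentration. GI50: concentration for 50% inhibition of growth.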 Calls of active or inactive are those of the source. No stated cut-off is given here; in the data, active = GI50 up to about 1.1 µM and inactive = higher.

What was measured:
Experiment in all cases: NCI anticancer screen, dose series, 48 h
LOX IMVI = tested on: LOX IMVI
SNB-19 = tested on: SNB-19
K562 = tested on: K562
OVCAR-5 = tested on: OVCAR-5
KM12 = tested on: KM12
NCI-H460 = tested on: NCI-H460
SN12C = tested on: SN12C
HCC 2998 = tested on: HCC 2998
HCT-116 = tested on: HCT-116
MDA-MB-435 = tested on: MDA-MB-435
Malme-3M = tested on: Malme-3M
SK-MEL-2 = tested on: SK-MEL-2
OVCAR-3 = tested on: OVCAR-3
MCF7 = tested on: MCF7
MOLT-4 = tested on: MOLT-4
DU-145 = tested on: DU-145
A549 = tested on: A549
NCI-H23 = tested on: NCI-H23
Hs-578T = tested on: Hs-578T
OVCAR-4 = tested on: OVCAR-4
PC-3 = tested on: PC-3
CAKI-1 = tested on: CAKI-1
RPMI-8226 = tested on: RPMI-8226
HL-60 = tested on: HL-60
ACHN = tested on: ACHN
TK-10 = tested on: TK-10
SF-295 = tested on: SF-295
NCI-H226 = tested on: NCI-H226
NCI/ADR-RES = tested on: NCI/ADR-RES
SK-OV-3 = tested on: SK-OV-3
CCRF-CEM = tested on: CCRF-CEM
NCI-H522 = tested on: NCI-H522
T47D = tested on: T47D
HOP-62 = tested on: HOP-62
UACC-257 = tested on: UACC-257
SF-539 = tested on: SF-539
SF-268 = tested on: SF-268
SW-620 = tested on: SW-620
RXF 393 = tested on: RXF 393
SNB-75 = tested on: SNB-75
UO-31 = tested on: UO-31
M14 = tested on: M14
HOP-92 = tested on: HOP-92
EKVX = tested on: EKVX
HT-29 = tested on: HT-29
MDA-N = tested on: MDA-N
IGROV-1 = tested on: IGROV-1
BT-549 = tested on: BT-549
UACC-62 = tested on: UACC-62
U-251 = tested on: U-251
SK-MEL-28 = tested on: SK-MEL-28
COLO 205 = tested on: COLO 205
SK-MEL-5 = tested on: SK-MEL-5
OVCAR-8 = tested on: OVCAR-8
A498 = tested on: A498
786-0 = tested on: 786-0
HCT-15 = tested on: HCT-15
SR = tested on: SR

**Q.** With `COC(=O)C1C(C(=O)OC)N(Cc2ccccc2)C(=O)N1Cc1ccccc1` (configuration not stated) as the compound, how does the GI50 (LOX IMVI) read?
**A.** The GI50 was > 100 µM (inactive).

**Q.** What about the GI50 (SNB-19) of the same compound?
**A.** Its GI50 is > 100 µM (inactive).

**Q.** What about the GI50 (K562) of the same compound?
**A.** The GI50 was 45.6 µM (inactive).

**Q.** And the GI50 (OVCAR-5)?
**A.** Its GI50 is > 100 µM (inactive).

**Q.** And the GI50 (KM12)?
**A.** The GI50 was > 100 µM (inactive).

**Q.** And the GI50 (NCI-H460)?
**A.** The GI50 was 69.5 µM (inactive).

**Q.** And the GI50 (SN12C)?
**A.** Its GI50 is > 100 µM (inactive).

**Q.** And the GI50 (HCC 2998)?
**A.** The GI50 was > 100 µM (inactive).

**Q.** What about the GI50 (HCT-116) of the same compound?
**A.** The GI50 was > 100 µM (inactive).

**Q.** And the GI50 (MDA-MB-435)?
**A.** Its GI50 is > 100 µM (inactive).

**Q.** What about the GI50 (Malme-3M) of the same compound?
**A.** The GI50 was > 100 µM (inactive).

**Q.** And the GI50 (SK-MEL-2)?
**A.** Its GI50 is > 100 µM (inactive).

**Q.** And the GI50 (OVCAR-3)?
**A.** Its GI50 is 61.8 µM (inactive).

**Q.** And the GI50 (MCF7)?
**A.** Its GI50 is 7.5 µM (inactive).

**Q.** And the GI50 (MOLT-4)?
**A.** Its GI50 is 22.8 µM (inactive).

**Q.** What about the GI50 (DU-145) of the same compound?
**A.** The GI50 was > 100 µM (inactive).

**Q.** And the GI50 (A549)?
**A.** The GI50 was > 100 µM (inactive).

**Q.** And the GI50 (NCI-H23)?
**A.** The GI50 was 75.5 µM (inactive).

**Q.** And the GI50 (Hs-578T)?
**A.** The GI50 was > 100 µM (inactive).

**Q.** And the GI50 (OVCAR-4)?
**A.** Its GI50 is > 100 µM (inactive).

**Q.** What about the GI50 (PC-3) of the same compound?
**A.** The GI50 was > 100 µM (inactive).

**Q.** What about the GI50 (CAKI-1) of the same compound?
**A.** The GI50 was 99.5 µM (inactive).

**Q.** What about the GI50 (RPMI-8226) of the same compound?
**A.** Its GI50 is 35 µM (inactive).

**Q.** And the GI50 (HL-60)?
**A.** The GI50 was 13.3 µM (inactive).

**Q.** And the GI50 (ACHN)?
**A.** Its GI50 is > 100 µM (inactive).

**Q.** What about the GI50 (TK-10) of the same compound?
**A.** Its GI50 is > 100 µM (inactive).

**Q.** What about the GI50 (SF-295) of the same compound?
**A.** The GI50 was 39.1 µM (inactive).

**Q.** What about the GI50 (NCI-H226) of the same compound?
**A.** The GI50 was > 100 µM (inactive).

**Q.** And the GI50 (NCI/ADR-RES)?
**A.** The GI50 was > 100 µM (inactive).

**Q.** What about the GI50 (SK-OV-3) of the same compound?
**A.** Its GI50 is 53.8 µM (inactive).

**Q.** And the GI50 (CCRF-CEM)?
**A.** The GI50 was 57.4 µM (inactive).

**Q.** What about the GI50 (NCI-H522) of the same compound?
**A.** The GI50 was 37.5 µM (inactive).

**Q.** And the GI50 (T47D)?
**A.** Its GI50 is 68.9 µM (inactive).

**Q.** And the GI50 (HOP-62)?
**A.** The GI50 was > 100 µM (inactive).

**Q.** What about the GI50 (UACC-257) of the same compound?
**A.** Its GI50 is 76 µM (inactive).

**Q.** What about the GI50 (SF-539) of the same compound?
**A.** Its GI50 is > 100 µM (inactive).

**Q.** And the GI50 (SF-268)?
**A.** The GI50 was > 100 µM (inactive).

**Q.** And the GI50 (SW-620)?
**A.** The GI50 was > 100 µM (inactive).

**Q.** What about the GI50 (RXF 393) of the same compound?
**A.** The GI50 was > 100 µM (inactive).

**Q.** What about the GI50 (SNB-75) of the same compound?
**A.** Its GI50 is > 100 µM (inactive).

**Q.** And the GI50 (UO-31)?
**A.** The GI50 was 87.7 µM (inactive).

**Q.** And the GI50 (M14)?
**A.** The GI50 was > 100 µM (inactive).

**Q.** And the GI50 (HOP-92)?
**A.** The GI50 was > 100 µM (inactive).

**Q.** What about the GI50 (EKVX) of the same compound?
**A.** Its GI50 is > 100 µM (inactive).

**Q.** What about the GI50 (HT-29) of the same compound?
**A.** The GI50 was > 100 µM (inactive).

**Q.** What about the GI50 (MDA-N) of the same compound?
**A.** Its GI50 is > 100 µM (inactive).

**Q.** And the GI50 (IGROV-1)?
**A.** The GI50 was 85.7 µM (inactive).

**Q.** What about the GI50 (BT-549) of the same compound?
**A.** Its GI50 is > 100 µM (inactive).

**Q.** What about the GI50 (UACC-62) of the same compound?
**A.** The GI50 was 64.6 µM (inactive).

**Q.** What about the GI50 (U-251) of the same compound?
**A.** The GI50 was > 100 µM (inactive).

**Q.** And the GI50 (SK-MEL-28)?
**A.** Its GI50 is > 100 µM (inactive).

**Q.** What about the GI50 (COLO 205) of the same compound?
**A.** The GI50 was > 100 µM (inactive).

**Q.** And the GI50 (SK-MEL-5)?
**A.** The GI50 was 58.5 µM (inactive).

**Q.** What about the GI50 (OVCAR-8) of the same compound?
**A.** The GI50 was > 100 µM (inactive).

**Q.** What does the source list for `NC12Oc3cc(O)cc(O)c3C1(c1ccc(Cl)cc1)c1c(O)cc(O)cc1O2` (configuration not stated)?
**A.** GI50 (LOX IMVI): 57.4 µM (inactive); GI50 (SNB-19): 73.1 µM (inactive); GI50 (K562): 30.8 µM (inactive); GI50 (OVCAR-5): > 100 µM (inactive); GI50 (KM12): > 100 µM (inactive); GI50 (A498): > 100 µM (inactive); GI50 (NCI-H460): 34.6 µM (inactive); GI50 (SN12C): 21.4 µM (inactive); GI50 (HCC 2998): > 100 µM (inactive); GI50 (HCT-116): 46 µM (inactive); GI50 (MDA-MB-435): 46.8 µM (inactive); GI50 (Malme-3M): 40.6 µM (inactive); GI50 (SK-MEL-2): 36.6 µM (inactive); GI50 (786-0): 61.8 µM (inactive); GI50 (OVCAR-3): 47.6 µM (inactive); GI50 (MCF7): 59.8 µM (inactive); GI50 (MOLT-4): 27.9 µM (inactive); GI50 (DU-145): > 100 µM (inactive); GI50 (A549): > 100 µM (inactive); GI50 (NCI-H23): 46.9 µM (inactive); GI50 (Hs-578T): 28.8 µM (inactive); GI50 (OVCAR-4): 27.5 µM (inactive); GI50 (PC-3): 43 µM (inactive); GI50 (CAKI-1): > 100 µM (inactive); GI50 (RPMI-8226): 33.4 µM (inactive); GI50 (HL-60): 27.4 µM (inactive); GI50 (ACHN): > 100 µM (inactive); GI50 (TK-10): 66.8 µM (inactive); GI50 (SF-295): 96.8 µM (inactive); GI50 (NCI-H226): > 100 µM (inactive); GI50 (NCI/ADR-RES): > 100 µM (inactive); GI50 (SK-OV-3): > 100 µM (inactive); GI50 (CCRF-CEM): 37.7 µM (inactive); GI50 (NCI-H522): 24.7 µM (inactive); GI50 (T47D): > 100 µM (inactive); GI50 (HCT-15): > 100 µM; GI50 (HOP-62): 68.9 µM (inactive); GI50 (UACC-257): 79.1 µM (inactive); GI50 (SF-539): 42.8 µM (inactive); GI50 (SF-268): 69 µM (inactive); GI50 (SW-620): > 100 µM (inactive); GI50 (RXF 393): 32.3 µM (inactive); GI50 (SNB-75): 89.1 µM (inactive); GI50 (UO-31): 92.5 µM (inactive); GI50 (M14): > 100 µM (inactive); GI50 (HOP-92): 25.9 µM (inactive); GI50 (EKVX): 71.8 µM (inactive); GI50 (HT-29): 35.4 µM (inactive); GI50 (MDA-N): 39.9 µM (inactive); GI50 (SR): 22.5 µM (inactive); GI50 (IGROV-1): 41.7 µM (inactive); GI50 (BT-549): > 100 µM (inactive); GI50 (UACC-62): 42 µM (inactive); GI50 (U-251): 65.8 µM (inactive); GI50 (SK-MEL-28): 61.2 µM (inactive); GI50 (COLO 205): 97.5 µM (inactive); GI50 (SK-MEL-5): 37.5 µM (inactive); GI50 (OVCAR-8): > 100 µM (inactive)
